Measured values reported in ChEMBL document CHEMBL3885881, “DrugMatrix”.

Species on record: Rattus norvegicus
Assay: DrugMatrix - Regimen: Daily Repeat
Type: toxicity, organism-based, Sprague-Dawley
Set-up: regimen Daily Repeat, gender Male, age 6-8 weeks
Conditions: in vivo, ip, 0 mg/kg, route intraperitoneal, dose level Control, […]; for ABSOLUTE BASOPHIL / ABSOLUTE EOSINOPHIL / ABSOLUTE LYMPHOCYTE / ABSOLUTE MONOCYTE / ABSOLUTE SEGMENTED NEUTROPHIL / BASOPHIL / EOSINOPHIL / ERYTHROCYTE COUNT / HEMATOCRIT / HEMOGLOBIN / LEUKOCYTE COUNT / LYMPHOCYTE / MEAN CORPUSCULAR HEMOGLOBIN / MEAN CORPUSCULAR HEMOGLOBIN CONCENTRATION / MEAN CORPUSCULAR VOLUME / MONOCYTE / NEUTROPHIL / NUCLEATED RED BLOOD CELLS / PLATELET COUNT: tissue Blood; for ALANINE AMINOTRANSFERASE / ALBUMIN / ALKALINE PHOSPHATASE / ASPARTATE AMINOTRANSFERASE / BLOOD UREA NITROGEN / CARBON DIOXIDE / CHLORIDE / CHOLESTEROL / CREATININE / GLUCOSE / LACTATE DEHYDROGENASE / LIPASE / PHOSPHORUS / POTASSIUM / SODIUM / TOTAL BILIRUBIN / TOTAL PROTEIN / URIC ACID: tissue Plasma

ClC(Cl)=C(Cl)C(Cl)=C(Cl)Cl [HEXACHLOROBUTADIENE]
ABSOLUTE BASOPHIL (72 h, time 3 day): 0 CELLS/uL
ABSOLUTE EOSINOPHIL (72 h, time 3 day): 135.5 CELLS/uL
ABSOLUTE LYMPHOCYTE (72 h, time 3 day): 9030.67 CELLS/uL
ABSOLUTE MONOCYTE (72 h, time 3 day): 286.5 CELLS/uL
ABSOLUTE SEGMENTED NEUTROPHIL (72 h, time 3 day): 1330.67 CELLS/uL
BASOPHIL (72 h, time 3 day): 0%
EOSINOPHIL (72 h, time 3 day): 1.17%
ERYTHROCYTE COUNT (72 h, time 3 day): 5.54 x10E6/uL
HEMATOCRIT (72 h, time 3 day): 35.2%
HEMOGLOBIN (72 h, time 3 day): 12.65 G/DL
LEUKOCYTE COUNT (72 h, time 3 day): 10.78 x10E3/uL
LYMPHOCYTE (72 h, time 3 day): 83.83%
MEAN CORPUSCULAR HEMOGLOBIN (72 h, time 3 day): 22.87 pg
MEAN CORPUSCULAR HEMOGLOBIN CONCENTRATION (72 h, time 3 day): 35.98 G/DL
MEAN CORPUSCULAR VOLUME (72 h, time 3 day): 63.7 fL
MONOCYTE (72 h, time 3 day): 2.5%
NEUTROPHIL (72 h, time 3 day): 12.5%
NUCLEATED RED BLOOD CELLS (72 h, time 3 day): 0 /100WBC
PLATELET COUNT (72 h, time 3 day): 853.5 x10E3/uL
ALANINE AMINOTRANSFERASE (72 h, time 3 day): 45.83 u/L
ALBUMIN (72 h, time 3 day): 4.22 G/DL
ALKALINE PHOSPHATASE (72 h, time 3 day): 344.5 u/L
ASPARTATE AMINOTRANSFERASE (72 h, time 3 day): 85.33 u/L
BLOOD UREA NITROGEN (72 h, time 3 day): 16.17 mg/dL
CARBON DIOXIDE (72 h, time 3 day): 33.33 mmol/L
CHLORIDE (72 h, time 3 day): 101.33 MEQ/L
CHOLESTEROL (72 h, time 3 day): 73.33 mg/dL
CREATININE (72 h, time 3 day): 0.19 mg/dL
GLUCOSE (72 h, time 3 day): 157.67 mg/dL
LACTATE DEHYDROGENASE (72 h, time 3 day): 160.33 u/L
LIPASE (72 h, time 3 day): 9.83 u/L
PHOSPHORUS (72 h, time 3 day): 11.4 mg/dL
POTASSIUM (72 h, time 3 day): 6.1 MEQ/L
SODIUM (72 h, time 3 day): 146.25 MEQ/L
TOTAL BILIRUBIN (72 h, time 3 day): 0.17 mg/dL
TOTAL PROTEIN (72 h, time 3 day): 6.3 G/DL
URIC ACID (72 h, time 3 day): 1.28 mg/dL
ABSOLUTE BASOPHIL (120 h, time 5 day): 0 CELLS/uL
ABSOLUTE EOSINOPHIL (120 h, time 5 day): 134 CELLS/uL
ABSOLUTE LYMPHOCYTE (120 h, time 5 day): 9272.17 CELLS/uL
ABSOLUTE MONOCYTE (120 h, time 5 day): 286 CELLS/uL
ABSOLUTE SEGMENTED NEUTROPHIL (120 h, time 5 day): 1357.83 CELLS/uL
BASOPHIL (120 h, time 5 day): 0%
EOSINOPHIL (120 h, time 5 day): 1.17%
ERYTHROCYTE COUNT (120 h, time 5 day): 5.83 x10E6/uL
HEMATOCRIT (120 h, time 5 day): 36.17%
HEMOGLOBIN (120 h, time 5 day): 13.1 G/DL
LEUKOCYTE COUNT (120 h, time 5 day): 11.05 x10E3/uL
LYMPHOCYTE (120 h, time 5 day): 83.83%
MEAN CORPUSCULAR HEMOGLOBIN (120 h, time 5 day): 22.5 pg
MEAN CORPUSCULAR HEMOGLOBIN CONCENTRATION (120 h, time 5 day): 36.25 G/DL
MEAN CORPUSCULAR VOLUME (120 h, time 5 day): 62 fL
MONOCYTE (120 h, time 5 day): 2.67%
NEUTROPHIL (120 h, time 5 day): 12.33%
NUCLEATED RED BLOOD CELLS (120 h, time 5 day): 0 /100WBC
PLATELET COUNT (120 h, time 5 day): 806.67 x10E3/uL
ALANINE AMINOTRANSFERASE (120 h, time 5 day): 50.83 u/L
ALBUMIN (120 h, time 5 day): 4.13 G/DL
ALKALINE PHOSPHATASE (120 h, time 5 day): 358.17 u/L
ASPARTATE AMINOTRANSFERASE (120 h, time 5 day): 148.83 u/L
BLOOD UREA NITROGEN (120 h, time 5 day): 13.83 mg/dL
CARBON DIOXIDE (120 h, time 5 day): 35.83 mmol/L
CHLORIDE (120 h, time 5 day): 99.33 MEQ/L
CHOLESTEROL (120 h, time 5 day): 80.5 mg/dL
CREATININE (120 h, time 5 day): 0.19 mg/dL
GLUCOSE (120 h, time 5 day): 156.33 mg/dL
LACTATE DEHYDROGENASE (120 h, time 5 day): 238.17 u/L
LIPASE (120 h, time 5 day): 9.17 u/L
PHOSPHORUS (120 h, time 5 day): 12.53 mg/dL
POTASSIUM (120 h, time 5 day): 6.34 MEQ/L
SODIUM (120 h, time 5 day): 145.15 MEQ/L
TOTAL BILIRUBIN (120 h, time 5 day): 0.18 mg/dL
TOTAL PROTEIN (120 h, time 5 day): 6.07 G/DL
URIC ACID (120 h, time 5 day): 1.3 mg/dL
ABSOLUTE BASOPHIL (time 14 day): 0 CELLS/uL
ABSOLUTE EOSINOPHIL (time 14 day): 56.5 CELLS/uL
ABSOLUTE LYMPHOCYTE (time 14 day): 12701 CELLS/uL
ABSOLUTE MONOCYTE (time 14 day): 330.33 CELLS/uL
ABSOLUTE SEGMENTED NEUTROPHIL (time 14 day): 2428.83 CELLS/uL
BASOPHIL (time 14 day): 0%
EOSINOPHIL (time 14 day): 0.33%
ERYTHROCYTE COUNT (time 14 day): 6.18 x10E6/uL
HEMATOCRIT (time 14 day): 36.42%
HEMOGLOBIN (time 14 day): 13.22 G/DL
LEUKOCYTE COUNT (time 14 day): 15.52 x10E3/uL
LYMPHOCYTE (time 14 day): 82.5%
MEAN CORPUSCULAR HEMOGLOBIN (time 14 day): 21.38 pg
MEAN CORPUSCULAR HEMOGLOBIN CONCENTRATION (time 14 day): 36.32 G/DL
MEAN CORPUSCULAR VOLUME (time 14 day): 58.92 fL
MONOCYTE (time 14 day): 2.17%
NEUTROPHIL (time 14 day): 15%
NUCLEATED RED BLOOD CELLS (time 14 day): 0 /100WBC
PLATELET COUNT (time 14 day): 999 x10E3/uL
ALANINE AMINOTRANSFERASE (time 14 day): 39.17 u/L
ALBUMIN (time 14 day): 4.05 G/DL
ALKALINE PHOSPHATASE (time 14 day): 275.17 u/L
ASPARTATE AMINOTRANSFERASE (time 14 day): 84.5 u/L
BLOOD UREA NITROGEN (time 14 day): 12 mg/dL
CARBON DIOXIDE (time 14 day): 29.5 mmol/L
CHLORIDE (time 14 day): 101 MEQ/L
CHOLESTEROL (time 14 day): 73.83 mg/dL
CREATININE (time 14 day): 0.19 mg/dL
GLUCOSE (time 14 day): 146.5 mg/dL
LACTATE DEHYDROGENASE (time 14 day): 285.67 u/L
LIPASE (time 14 day): 9 u/L
PHOSPHORUS (time 14 day): 11.67 mg/dL
POTASSIUM (time 14 day): 6.82 MEQ/L
SODIUM (time 14 day): 143.57 MEQ/L
TOTAL BILIRUBIN (time 14 day): 0.13 mg/dL
TOTAL PROTEIN (time 14 day): 6.23 G/DL
URIC ACID (time 14 day): 1.75 mg/dL
